Assay results published in ChEMBL document CHEMBL1201862, “PubChem BioAssay data set” (2004).
The source made the active and inactive calls.

Tests used:
Vero = assay: viability of Vero cells under compound – cytotoxicity control for flavivirus capping enzyme inhibitors (AID 588742); type: functional; settings: Chlorocebus sabaeus
[1] = non-specific 3'UTR reporter inhibition in Clone20-Shn3RL – cell-based, Renilla luciferase, cherry-picked, counter-screen for Shn3 inhibitor project, dose response (AID 624133); type: functional
HEK293 [2] = assay: SAR Analysis of small molecule inhibitors of T-cell specific antigen receptor-induced NF-kB activation in a HEK-293T cell line using a luminescence assay - Set 2. [Related pubchem assays (depositor defined):AID435003, AID435012, AID489026]; type: functional, cell-based; settings: Homo sapiens
[3] = DRD fibroblast viability loss – cell-based, non-viral oncogenic, luminescence, dose response (AID 1934); type: functional; settings: Homo sapiens
BJ = assay: BJ-TERT-LT-ST fibroblast viability loss – cell-based, RAS-independent, luminescence, dose response (AID 1935); type: functional; settings: Homo sapiens;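 further: BJ fibroblasts immortalized with TERT plus LT and ST oncogenes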
[4] = biological target: T1, Sentrin-specific protease 7 (Homo sapiens, UniProt Q9BQF6); type: functional;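 further: Luminescence-based dose-response confirmation of ultra-high-throughput screening hits, measuring inhibition of SENP7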
T1 sequence (Q9BQF6 whole entry): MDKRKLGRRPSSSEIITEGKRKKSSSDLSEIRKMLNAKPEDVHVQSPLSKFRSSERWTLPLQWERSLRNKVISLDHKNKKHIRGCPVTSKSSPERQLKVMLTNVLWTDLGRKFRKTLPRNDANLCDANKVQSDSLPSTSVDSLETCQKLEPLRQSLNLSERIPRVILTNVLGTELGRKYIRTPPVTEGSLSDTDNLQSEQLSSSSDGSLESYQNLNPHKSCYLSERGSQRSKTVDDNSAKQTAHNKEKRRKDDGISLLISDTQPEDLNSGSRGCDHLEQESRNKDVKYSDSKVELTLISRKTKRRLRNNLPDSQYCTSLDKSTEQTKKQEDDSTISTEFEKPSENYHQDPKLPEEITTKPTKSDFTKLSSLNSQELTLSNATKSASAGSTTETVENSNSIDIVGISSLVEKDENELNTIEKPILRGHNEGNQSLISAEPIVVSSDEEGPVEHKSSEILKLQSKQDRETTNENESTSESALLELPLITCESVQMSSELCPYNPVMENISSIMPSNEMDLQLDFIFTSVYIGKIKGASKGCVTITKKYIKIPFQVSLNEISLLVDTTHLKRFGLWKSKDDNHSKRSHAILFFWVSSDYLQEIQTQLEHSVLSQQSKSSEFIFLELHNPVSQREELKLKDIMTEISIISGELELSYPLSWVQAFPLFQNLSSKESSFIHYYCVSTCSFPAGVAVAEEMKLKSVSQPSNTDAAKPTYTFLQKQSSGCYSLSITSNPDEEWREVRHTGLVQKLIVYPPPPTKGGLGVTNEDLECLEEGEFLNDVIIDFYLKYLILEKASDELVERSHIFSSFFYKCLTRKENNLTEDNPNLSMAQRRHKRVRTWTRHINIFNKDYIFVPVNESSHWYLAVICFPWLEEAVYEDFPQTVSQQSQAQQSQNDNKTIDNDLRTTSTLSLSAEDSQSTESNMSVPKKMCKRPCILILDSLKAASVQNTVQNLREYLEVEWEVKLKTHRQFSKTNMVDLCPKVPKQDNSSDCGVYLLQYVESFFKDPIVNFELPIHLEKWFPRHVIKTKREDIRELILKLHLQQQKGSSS

[5] = CellTiter-Glo luminescence survival assay, SW480 colon tumor line, concentration-response curve, half-maximal inhibitory concentration (AID 1117338); type: functional
[6] = cytotoxicity toward HT-29 cells – cell-based, CellTiter-Glo luminescence, IC50, dose response (AID 1117330); type: functional
Large T antigen = Large T antigen (Simian virus 40, UniProt P03070); assay: A confirmatory biochemical assay using the ADP-Hunter methodology, purified TAg, and ATP to quantify activity of synthesized compounds that inhibit the ATPase activity of Tag (3). [Related pubchem assays (depositor defined):AID1903, AID1909, AID2102, AID2501, AID2615, AID2775, AID435001, AID449729]; design: species or system Betapolyomavirus macacae
Chain of Large T antigen (P03070 whole entry): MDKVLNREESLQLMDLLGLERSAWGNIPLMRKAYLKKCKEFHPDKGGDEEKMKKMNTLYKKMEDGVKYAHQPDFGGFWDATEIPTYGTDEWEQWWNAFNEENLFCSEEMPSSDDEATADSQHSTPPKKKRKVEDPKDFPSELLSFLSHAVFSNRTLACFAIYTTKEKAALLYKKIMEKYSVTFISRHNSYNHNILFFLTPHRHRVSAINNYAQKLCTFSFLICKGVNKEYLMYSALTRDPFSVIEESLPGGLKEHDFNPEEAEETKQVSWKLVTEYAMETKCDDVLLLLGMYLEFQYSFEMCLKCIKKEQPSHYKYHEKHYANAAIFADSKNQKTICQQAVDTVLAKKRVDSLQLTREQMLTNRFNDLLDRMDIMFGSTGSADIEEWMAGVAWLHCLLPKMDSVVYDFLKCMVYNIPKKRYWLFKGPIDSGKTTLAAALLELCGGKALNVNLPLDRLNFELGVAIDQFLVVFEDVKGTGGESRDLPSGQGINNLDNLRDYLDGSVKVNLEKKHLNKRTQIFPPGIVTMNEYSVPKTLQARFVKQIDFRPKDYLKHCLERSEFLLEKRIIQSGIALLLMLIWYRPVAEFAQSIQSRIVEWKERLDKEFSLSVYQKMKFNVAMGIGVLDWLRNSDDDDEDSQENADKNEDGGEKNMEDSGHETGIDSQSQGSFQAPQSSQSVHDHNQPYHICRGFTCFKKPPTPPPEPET

Aminopeptidase N = biological target: T2, Aminopeptidase N (Plasmodium falciparum FcB1/Columbia, UniProt O96935); assay: malaria alanyl aminopeptidase activity blockers – biochemical, fluorogenic H-Leu-NHMec substrate, 1536-well (AID 1445); design: species or system Plasmodium falciparum 3D7, 3D7
T2 sequence (O96935 whole entry): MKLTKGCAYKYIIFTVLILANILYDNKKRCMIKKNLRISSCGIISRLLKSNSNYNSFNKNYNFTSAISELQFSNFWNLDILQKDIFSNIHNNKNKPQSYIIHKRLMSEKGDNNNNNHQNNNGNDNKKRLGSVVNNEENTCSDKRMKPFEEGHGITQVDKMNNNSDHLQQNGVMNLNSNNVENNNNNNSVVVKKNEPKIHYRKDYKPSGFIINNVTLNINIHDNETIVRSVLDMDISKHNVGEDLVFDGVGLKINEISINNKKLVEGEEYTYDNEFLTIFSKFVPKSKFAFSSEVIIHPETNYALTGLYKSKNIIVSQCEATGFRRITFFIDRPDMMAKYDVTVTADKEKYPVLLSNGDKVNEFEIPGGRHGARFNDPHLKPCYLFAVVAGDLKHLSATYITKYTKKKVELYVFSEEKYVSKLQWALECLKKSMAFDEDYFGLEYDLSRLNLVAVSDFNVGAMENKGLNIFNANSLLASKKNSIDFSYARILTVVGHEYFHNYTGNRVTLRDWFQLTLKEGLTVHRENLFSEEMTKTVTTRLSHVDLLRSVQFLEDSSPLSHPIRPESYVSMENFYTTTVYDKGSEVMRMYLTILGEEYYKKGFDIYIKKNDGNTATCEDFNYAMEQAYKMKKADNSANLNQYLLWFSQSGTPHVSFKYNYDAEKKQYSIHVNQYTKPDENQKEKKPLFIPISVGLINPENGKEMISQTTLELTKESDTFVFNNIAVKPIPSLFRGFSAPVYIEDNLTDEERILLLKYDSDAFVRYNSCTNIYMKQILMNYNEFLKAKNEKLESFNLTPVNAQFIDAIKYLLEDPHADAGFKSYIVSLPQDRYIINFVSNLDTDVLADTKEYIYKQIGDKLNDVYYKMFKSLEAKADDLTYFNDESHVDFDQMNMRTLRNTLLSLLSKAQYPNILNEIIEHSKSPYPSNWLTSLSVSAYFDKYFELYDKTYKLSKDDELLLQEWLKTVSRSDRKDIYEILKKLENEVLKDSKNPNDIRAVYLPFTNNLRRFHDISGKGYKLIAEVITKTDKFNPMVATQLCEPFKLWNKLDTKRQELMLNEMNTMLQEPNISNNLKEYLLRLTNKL

HEK293 [7] = assay: Fluorescence-based counterscreen for potentiators or agonists of NPY-Y2: cell-based high-throughput dose response assay to identify inhibitors of cyclic nucleotide gated ion channel (CNGC) activity. In this assay, the parental HEK293 cell line transfected with a cyclic-nucleotide gated ion channel (CNGC)-based cAMP sensor is used to measure inhibition of isoproterenol-induced CNGC activity by test compound.; type: functional; settings: Homo sapiens

Compound: CCc1ccc(S(=O)(=O)Nc2cc(SCC(=O)O)c(O)c3ccccc23)cc1
- CC50 (Vero): 33.6 µM (active)

Compound: CCCC(=O)NC(c1ccc(C(C)C)cc1)c1ccc2cccnc2c1O (stereo unspecified)
- AC50 [1]: 0.938 µM (active)
- IC50 (HEK293 [2]): 3.76 µM (active)
- EC50 [3]: 2.35 µM (active)
- EC50 (BJ): 2.1 µM (inconclusive)

Compound: N#Cc1c(N2CCCCC2)nc(N)c2c(N)nc(SCC(=O)O)cc12
- IC50 [4]: 11.8 µM (active)

Compound: Oc1c(Cl)cc(Cl)c(Cl)c1Cc1c(O)c(Cl)cc(Cl)c1Cl [HEXACHLOROPHENE]
- IC50 [5]: 0.003 µM (active)
- IC50 [6]: 0.46 µM (active)
- IC50 (Large T antigen): 34.5 µM (active)
- IC50 (Aminopeptidase N): 58 µM (active)
- EC50 (HEK293 [7]): > 11.8 µM (not active)
